From US8026278B2, “Inhibitors of pyruvate kinase as therapeutic agents for cancer” (priority 2005, dated 2011)
Where a name gives a salt, the structure may show the parent alone. Read-outs that look alike come from different tables or passages of the source.

Legend:
[1] = test system: MCF7 (breast) cancer cell line; experiment: MTT assay, inhibition of cell proliferation, MCF7; assay type: cell-based; details: MCF7, 72 hours
Procedure: (§1) The compounds of the invention were tested for their inhibition potential of cell proliferation. MCF7 (breast) and SF268 (glioma) cancer cell lines were incubated with different concentrations of the compounds and their viability was assessed using an MTT (3-(4,5-dimethylthiazol-2-yl)-2,5-diphenyltetrazolium bromide) assay. The MTT assay is well known in the art (see for example Slater et al., Biochim. Biophys. Acta 77 (1963) 383). The cells were incubated with a given inhibitor for 72 hours and assayed.

[2] = test system: SF268 (glioma) cancer cell line; experiment: MTT assay, inhibition of cell proliferation, SF268; assay type: cell-based; details: SF268, 72 hours
Procedure: as §1

[3] = molecular target: T1, Pyruvate kinase isolated from rabbit muscle (Oryctolagus cuniculus, UniProt P11974); experiment: Inhibition of pyruvate kinase (indirect assay quantifying ADP production); assay type: biochemical
T1 construct: Pyruvate kinase isolated from rabbit muscle; purchased Sigma-Aldrich; host or cells: rabbit muscle (tissue-derived enzyme)
Procedure: The compounds E-3-chlorophosphoenolpyruvate ditriethyl-ammonium salt (ECPDAT), Z-3-chlorophosphoenolpyruvate tritriethyl-ammonium salt (CPTP), phosphoenol-3-bromo-pyruvic acid mono-cyclohexyl ammonium salt (PBPA), 2-bromooxoethylphosphonic acid mono-cyclohexyl-ammonium salt (BOEPA) and 3-bromopyruvic acid (BrPyA) were tested for their efficiency at inhibiting pyruvate kinase. Pyruvate kinase isolated from rabbit muscle was purchased from Sigma-Aldrich. Pyruvate kinase was assayed indirectly by quantifying ADP production formed in the reaction ATP+pyruvate to ADP+phosphoenolpyruvate. Inhibitors were added to the reaction mixture immediately before the reaction was started by the addition of ATP.

T1 sequence (P11974 whole entry): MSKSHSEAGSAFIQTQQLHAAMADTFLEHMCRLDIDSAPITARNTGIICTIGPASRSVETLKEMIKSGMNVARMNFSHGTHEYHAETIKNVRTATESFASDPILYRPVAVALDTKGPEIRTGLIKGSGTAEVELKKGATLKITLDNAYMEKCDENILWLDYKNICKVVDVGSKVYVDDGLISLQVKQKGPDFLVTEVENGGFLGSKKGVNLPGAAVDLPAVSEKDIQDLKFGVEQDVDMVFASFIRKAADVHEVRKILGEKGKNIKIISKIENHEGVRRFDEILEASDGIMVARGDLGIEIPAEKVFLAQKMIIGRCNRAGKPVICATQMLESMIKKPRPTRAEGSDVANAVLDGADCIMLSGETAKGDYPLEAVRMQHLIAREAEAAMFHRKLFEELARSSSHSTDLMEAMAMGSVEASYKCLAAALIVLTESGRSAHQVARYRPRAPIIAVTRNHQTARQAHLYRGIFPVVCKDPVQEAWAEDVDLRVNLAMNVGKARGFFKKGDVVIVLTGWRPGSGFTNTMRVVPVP

## O=C(CBr)P(=O)(O)O [BOEPA]
[1]
  Inhibition of cell proliferation: inhibited cell proliferation
[1]; 10 uM
  % (A-Blank relative to control): 93.37%
  A-Blank (Average-Blank) O.D. at 570 nm: 0.7642 O.D.
  Average O.D. reading at 570 nm: 0.8518 O.D.
[1]; 25 uM
  % (A-Blank relative to control): 93.769%
  A-Blank (Average-Blank) O.D. at 570 nm: 0.7675 O.D.
  Average O.D. reading at 570 nm: 0.855 O.D.
[1]; 50 uM
  % (A-Blank relative to control): 91.142%
  A-Blank (Average-Blank) O.D. at 570 nm: 0.746 O.D.
  Average O.D. reading at 570 nm: 0.8335 O.D.
[1]; 75 uM
  % (A-Blank relative to control): 93.28%
  A-Blank (Average-Blank) O.D. at 570 nm: 0.7635 O.D.
  Average O.D. reading at 570 nm: 0.851 O.D.
[1]; 100 uM
  % (A-Blank relative to control): 91.57%
  A-Blank (Average-Blank) O.D. at 570 nm: 0.7495 O.D.
  Average O.D. reading at 570 nm: 0.837 O.D.
[1]; 200 uM
  % (A-Blank relative to control): 89.249%
  A-Blank (Average-Blank) O.D. at 570 nm: 0.7305 O.D.
  Average O.D. reading at 570 nm: 0.818 O.D.
[1]; 300 uM
  % (A-Blank relative to control): 56.2004%
  A-Blank (Average-Blank) O.D. at 570 nm: 0.46 O.D.
  Average O.D. reading at 570 nm: 0.5475 O.D.
[1]; 500 uM
  % (A-Blank relative to control): 36.68%
  A-Blank (Average-Blank) O.D. at 570 nm: 0.3003 O.D.
  Average O.D. reading at 570 nm: 0.3877 O.D.
[2]
  Inhibition of cell proliferation: inhibited cell proliferation
[2]; 10 uM
  % (A-Blank relative to control): 101.2806%
  A-Blank (Average-Blank) O.D. at 570 nm: 0.692 O.D.
  Average O.D. reading at 570 nm: 0.7792 O.D.
[2]; 25 uM
  % (A-Blank relative to control): 99.49%
  A-Blank (Average-Blank) O.D. at 570 nm: 0.68 O.D.
  Average O.D. reading at 570 nm: 0.767 O.D.
[2]; 50 uM
  % (A-Blank relative to control): 100.8%
  A-Blank (Average-Blank) O.D. at 570 nm: 0.689 O.D.
  Average O.D. reading at 570 nm: 0.776 O.D.
[2]; 75 uM
  % (A-Blank relative to control): 96.52%
  A-Blank (Average-Blank) O.D. at 570 nm: 0.66 O.D.
  Average O.D. reading at 570 nm: 0.747 O.D.
[2]; 100 uM
  % (A-Blank relative to control): 90.45%
  A-Blank (Average-Blank) O.D. at 570 nm: 0.618 O.D.
  Average O.D. reading at 570 nm: 0.705 O.D.
[2]; 200 uM
  % (A-Blank relative to control): 53.055%
  A-Blank (Average-Blank) O.D. at 570 nm: 0.3625 O.D.
  Average O.D. reading at 570 nm: 0.4498 O.D.
[2]; 300 uM
  % (A-Blank relative to control): 12.221%
  A-Blank (Average-Blank) O.D. at 570 nm: 0.0835 O.D.
  Average O.D. reading at 570 nm: 0.1708 O.D.
[2]; 500 uM
  % (A-Blank relative to control): 5.196%
  A-Blank (Average-Blank) O.D. at 570 nm: 0.0355 O.D.
  Average O.D. reading at 570 nm: 0.1227 O.D.
[3]
  inhibition at 0.1 µM: 0%
  inhibition at 1 µM: 0%
  inhibition at 10 µM: 0%

## E-3-chlorophosphoenolpyruvate ditriethyl-ammonium salt [E-CPDA]
[1]
  Inhibition of cell proliferation: inhibited cell proliferation
[1]; 10 uM
  % (A-Blank relative to control): 101.1%
  A-Blank (Average-Blank) O.D. at 570 nm: 0.8245 O.D.
  Average O.D. reading at 570 nm: 0.91 O.D.
[1]; 25 uM
  % (A-Blank relative to control): 97.333%
  A-Blank (Average-Blank) O.D. at 570 nm: 0.7938 O.D.
  Average O.D. reading at 570 nm: 0.8793 O.D.
[1]; 50 uM
  % (A-Blank relative to control): 86.726%
  A-Blank (Average-Blank) O.D. at 570 nm: 0.7073 O.D.
  Average O.D. reading at 570 nm: 0.7928 O.D.
[1]; 75 uM
  % (A-Blank relative to control): 78.449%
  A-Blank (Average-Blank) O.D. at 570 nm: 0.6398 O.D.
  Average O.D. reading at 570 nm: 0.7253 O.D.
[1]; 100 uM
  % (A-Blank relative to control): 72.072%
  A-Blank (Average-Blank) O.D. at 570 nm: 0.5878 O.D.
  Average O.D. reading at 570 nm: 0.6733 O.D.
[1]; 200 uM
  % (A-Blank relative to control): 68.486%
  A-Blank (Average-Blank) O.D. at 570 nm: 0.5585 O.D.
  Average O.D. reading at 570 nm: 0.644 O.D.
[1]; 300 uM
  % (A-Blank relative to control): 7.8786%
  A-Blank (Average-Blank) O.D. at 570 nm: 0.06425 O.D.
  Average O.D. reading at 570 nm: 0.1497 O.D.
[1]; 500 uM
  % (A-Blank relative to control): 2.759%
  A-Blank (Average-Blank) O.D. at 570 nm: 0.0225 O.D.
  Average O.D. reading at 570 nm: 0.108 O.D.
[2]
  Inhibition of cell proliferation: inhibited cell proliferation
[2]; 10 uM
  % (A-Blank relative to control): 80.1%
  A-Blank (Average-Blank) O.D. at 570 nm: 0.672 O.D.
  Average O.D. reading at 570 nm: 0.777 O.D.
[2]; 25 uM
  % (A-Blank relative to control): 80.453%
  A-Blank (Average-Blank) O.D. at 570 nm: 0.675 O.D.
  Average O.D. reading at 570 nm: 0.78 O.D.
[2]; 50 uM
  % (A-Blank relative to control): 64.243%
  A-Blank (Average-Blank) O.D. at 570 nm: 0.539 O.D.
  Average O.D. reading at 570 nm: 0.644 O.D.
[2]; 75 uM
  % (A-Blank relative to control): 44.458%
  A-Blank (Average-Blank) O.D. at 570 nm: 0.373 O.D.
  Average O.D. reading at 570 nm: 0.478 O.D.
[2]; 100 uM
  % (A-Blank relative to control): 30.513%
  A-Blank (Average-Blank) O.D. at 570 nm: 0.256 O.D.
  Average O.D. reading at 570 nm: 0.361 O.D.
[2]; 200 uM
  % (A-Blank relative to control): 13.23%
  A-Blank (Average-Blank) O.D. at 570 nm: 0.111 O.D.
  Average O.D. reading at 570 nm: 0.216 O.D.
[2]; 300 uM
  % (A-Blank relative to control): 6.555%
  A-Blank (Average-Blank) O.D. at 570 nm: 0.055 O.D.
  Average O.D. reading at 570 nm: 0.16 O.D.
[2]; 500 uM
  % (A-Blank relative to control): 3.099%
  A-Blank (Average-Blank) O.D. at 570 nm: 0.026 O.D.
  Average O.D. reading at 570 nm: 0.131 O.D.
[3]
  Inhibition of pyruvate kinase compared with BrPyA: inhibited pyruvate kinase at lower concentrations than BrPyA
[3]; Concentration 0.1 μM
  % Inhibition: 0%
[3]; Concentration 1 μM
  % Inhibition: 10.9%
[3]; Concentration 10 μM
  % Inhibition: 100%

## O=C(O)C(=O)CBr [BrPyA, 3-bromopyruvic acid, reference compound]
[3]; Concentration 0.1 mM
  inhibition at 100 µM: 0%
[3]; Concentration 1 mM
  inhibition at 1000 µM: 0%
[3]; Concentration 10 mM
  inhibition at 10000 µM: 10.9%
[3]; Concentration 100 mM
  inhibition at 100000 µM: 57.8%

## O=C(O)C(=CBr)OP(=O)(O)O [PBPA, phosphoenol-3-bromo-pyruvic acid mono-cyclohexyl ammonium salt]
[1]
  Inhibition of cell proliferation: inhibited cell proliferation
[1]; 10 uM
  % (A-Blank relative to control): 94.23%
  A-Blank (Average-Blank) O.D. at 570 nm: 0.7632 O.D.
  Average O.D. reading at 570 nm: 0.846 O.D.
[1]; 25 uM
  % (A-Blank relative to control): 97.16%
  A-Blank (Average-Blank) O.D. at 570 nm: 0.787 O.D.
  Average O.D. reading at 570 nm: 0.8698 O.D.
[1]; 50 uM
  % (A-Blank relative to control): 97.901%
  A-Blank (Average-Blank) O.D. at 570 nm: 0.793 O.D.
  Average O.D. reading at 570 nm: 0.8758 O.D.
[1]; 75 uM
  % (A-Blank relative to control): 98.827%
  A-Blank (Average-Blank) O.D. at 570 nm: 0.8005 O.D.
  Average O.D. reading at 570 nm: 0.8833 O.D.
[1]; 100 uM
  % (A-Blank relative to control): 95.71%
  A-Blank (Average-Blank) O.D. at 570 nm: 0.7753 O.D.
  Average O.D. reading at 570 nm: 0.858 O.D.
[1]; 200 uM
  % (A-Blank relative to control): 93.333%
  A-Blank (Average-Blank) O.D. at 570 nm: 0.756 O.D.
  Average O.D. reading at 570 nm: 0.8388 O.D.
[1]; 300 uM
  % (A-Blank relative to control): 84.9074%
  A-Blank (Average-Blank) O.D. at 570 nm: 0.6877 O.D.
  Average O.D. reading at 570 nm: 0.7705 O.D.
[1]; 500 uM
  % (A-Blank relative to control): 75.31%
  A-Blank (Average-Blank) O.D. at 570 nm: 0.61 O.D.
  Average O.D. reading at 570 nm: 0.6927 O.D.
[2]
  Inhibition of cell proliferation: inhibited cell proliferation
[2]; 10 uM
  % (A-Blank relative to control): 100.1%
  A-Blank (Average-Blank) O.D. at 570 nm: 0.6935 O.D.
  Average O.D. reading at 570 nm: 0.7798 O.D.
[2]; 25 uM
  % (A-Blank relative to control): 102.02%
  A-Blank (Average-Blank) O.D. at 570 nm: 0.7068 O.D.
  Average O.D. reading at 570 nm: 0.793 O.D.
[2]; 50 uM
  % (A-Blank relative to control): 99.567%
  A-Blank (Average-Blank) O.D. at 570 nm: 0.6898 O.D.
  Average O.D. reading at 570 nm: 0.776 O.D.
[2]; 75 uM
  % (A-Blank relative to control): 100.11%
  A-Blank (Average-Blank) O.D. at 570 nm: 0.6935 O.D.
  Average O.D. reading at 570 nm: 0.7798 O.D.
[2]; 100 uM
  % (A-Blank relative to control): 95.453%
  A-Blank (Average-Blank) O.D. at 570 nm: 0.6613 O.D.
  Average O.D. reading at 570 nm: 0.7475 O.D.
[2]; 200 uM
  % (A-Blank relative to control): 90.978%
  A-Blank (Average-Blank) O.D. at 570 nm: 0.6303 O.D.
  Average O.D. reading at 570 nm: 0.7165 O.D.
[2]; 300 uM
  % (A-Blank relative to control): 79.7546%
  A-Blank (Average-Blank) O.D. at 570 nm: 0.5525 O.D.
  Average O.D. reading at 570 nm: 0.6388 O.D.
[2]; 500 uM
  % (A-Blank relative to control): 74.49%
  A-Blank (Average-Blank) O.D. at 570 nm: 0.516 O.D.
  Average O.D. reading at 570 nm: 0.6022 O.D.
[3]
  Inhibition of pyruvate kinase compared with BrPyA: inhibited pyruvate kinase at lower concentrations than BrPyA
[3]; Concentration 0.1 μM, read-out: % Inhibition
  inhibition at 0.1 µM: 0%
[3]; Concentration 1 μM, read-out: % Inhibition
  inhibition at 1 µM: 13.8%
[3]; Concentration 10 μM, read-out: % Inhibition
  inhibition at 10 µM: 28.6%
